pIC50: −log10 of the molar value.
Test system: A. baumannii ATCC 17978
Assay: Antimicrobial susceptibility testing: 50% growth inhibitory concentration (IC50) determination in Iso-Sensitest broth
Type: cell-based
Settings: Acinetobacter baumannii; A. baumannii strain ATCC17978; Iso-Sensitest medium; OD 600 nm over 16 h; 35±2° C.; read-out: IC50 ATCC17978 (50% growth inhibition concentration)
Experimental: Antimicrobial Susceptibility Testing: 50% Growth Inhibitory Concentration (IC50) Determination The in vitro antimicrobial activity of the compounds was alternatively determined according to the following procedure: The assay used a 10-points Iso-Sensitest broth medium to measure quantitatively the in vitro activity of the compounds against A. baumannii ATCC 17978. Stock compounds in DMSO were serially twofold diluted (e.g. range from 10 to 0.02 μM final concentration) in 384 wells microtiter plates and inoculated with 49 μl the bacterial suspension in Iso-Sensitest medium to have a final cell concentration of ˜5×10^(5) CFU/ml in a final volume/well of […] Microtiter plates were incubated at 35±2° C. Bacterial cell growth was determined by the measurement of optical density at λ=600 nm each 20 minutes over a time course of 16 h. Growth inhibition was calculated during the logarithmic growth of the bacterial cells by determination of the concentration inhibiting 50% (IC50) and 90% (IC90) of the growth. Table 1 provides the 50% growth inhibitory concentrations (IC50) in micromoles per liter of the compounds of present invention obtained against the A. baumannnii strain ATCC17978.

SMILES	pIC50
CN1C(=O)[C@H](CCCN)NC(=O)[C@H](CCCN)NCc2cccnc2Sc2c(Cl)ccc(-c3cnc(=O)[nH]c3)c2CNC(=O)[C@@H]1Cc1c[nH]c2ccccc12 [Example 8.02, (11S,14S,17S)-11,14-bis(3-aminopropyl)-25-chloro-17-(1H-indol-3-ylmethyl)-16-methyl-22-(2-oxo-1H-pyrimidin-5-yl)-2-thia-4,10,13,16,19-pentazatricyclo[19.4.0.03,8]pentacosa-1(21),3,5,7,22,24-hexaene-12,15,18-trione]	7.10
CN1C(=O)[C@H](CCCN)NC(=O)[C@H](CCCN)NCc2cccnc2Sc2c(F)ccc(-c3ccc(P(=O)(O)O)cc3)c2CNC(=O)[C@@H]1Cc1c[nH]c2ccccc12 [Example 10.00, [4-[(11S,14S,17S)-11,14-Bis(3-aminopropyl)-25-fluoro-17-(1H-indol-3-ylmethyl)-16-methyl-12,15,18-trioxo-2-thia-4,10,13,16,19-pentazatricyclo[19.4.0.03,8]pentacosa-1(25), 3(8),4,6,21,23-hexaen-22-yl]phenyl]phosphonic acid]	6.21
CN1C(=O)[C@H](CCCCN)NC(=O)[C@H](CCC(N)=O)NCc2cccnc2Sc2c(Cl)ccc(-c3ccc(P(=O)(O)O)cc3)c2CNC(=O)[C@@H]1Cc1c[nH]c2ccccc12 [Example 10.01, [4-[(11S,14S,17S)-14-(4-aminobutyl)-11-(3-amino-3-oxo-propyl)-25-chloro-17-(1H-indol-3-ylmethyl)-16-methyl-12,15,18-trioxo-2-thia-4,10,13,16,19-pentazatricyclo[19.4.0.03,8]pentacosa-1(21),3,5,7,22,24-hexaen-22-yl]phenyl]phosphonic acid]	5.52
CN1C(=O)[C@H](CCCCN)NC(=O)[C@H](CCCN)NCc2cccnc2Sc2c(Cl)ccc(-c3ccc(P(=O)(O)O)cc3)c2CNC(=O)[C@@H]1Cc1c[nH]c2ccccc12 [Example 10.02, [4-[(11S,14S,17S)-14-(4-aminobutyl)-11-(3-aminopropyl)-25-chloro-17-(1H-indol-3-ylmethyl)-16-methyl-12,15,18-trioxo-2-thia-4,10,13,16,19-pentazatricyclo[19.4.0.03,8]pentacosa-1(21),3,5,7,22,24-hexaen-22-yl]phenyl]phosphonic acid]	6.82
CN1C(=O)[C@H](CCCN)NC(=O)[C@H](CCN)NCc2cccnc2Sc2c(Cl)ccc(-c3ccc(S(=O)(=O)O)cc3)c2CNC(=O)[C@@H]1Cc1c[nH]c2ccccc12 [Example 13.00, 4-[(11S,14S,17S)-11-(2-Aminoethyl)-14-(3-aminopropyl)-25-chloro-17-(1H-indol-3-ylmethyl)-16-methyl-12,15,18-trioxo-2-thia-4,10,13,16,19-pentazatricyclo[19.4.0.03,8]pentacosa-1(25), 3(8),4,6,21,23-hexaen-22-yl]benzenesulfonic acid]	7.70
C[C@@H]1NCc2cccnc2Sc2c(Cl)ccc(-c3ccc(S(=O)(=O)O)cc3)c2CNC(=O)[C@H](Cc2c[nH]c3ccccc23)N(C)C(=O)[C@H](CCCN)NC1=O [Example 14.00, 4-[(11S,14S,17S)-14-(3-Aminopropyl)-25-chloro-17-(1H-indol-3-ylmethyl)-11,16-dimethyl-12,15,18-trioxo-2-thia-4,10,13,16,19-pentazatricyclo[19.4.0.03,8]pentacosa-1(25), 3(8),4,6,21,23-hexaen-22-yl]benzenesulfonic acid]	6.14
COc1ccc(-c2ccc(S(=O)(=O)O)cc2)c2c1Sc1ncccc1CN[C@@H](CCCN)C(=O)N[C@@H](CCCCN)C(=O)N(C)[C@@H](Cc1c[nH]c3ccccc13)C(=O)NC2 [Example 15.00, 4-[(11S,14S,17S)-14-(4-Aminobutyl)-11-(3-aminopropyl)-17-(1H-indol-3-ylmethyl)-25-methoxy-16-methyl-12,15,18-trioxo-2-thia-4,10,13,16,19-pentazatricyclo[19.4.0.03,8]pentacosa-1(25), 3(8),4,6,21,23-hexaen-22-yl]benzenesulfonic acid]	7.10
COc1ccc(-c2ccc(-c3nnn[nH]3)cc2)c2c1Sc1ncccc1CN[C@@H](CCCN)C(=O)N[C@@H](CCCCN)C(=O)N(C)[C@@H](Cc1c[nH]c3ccccc13)C(=O)NC2 [Example 15.01, (11S,14S,17S)-14-(4-Aminobutyl)-1-(3-aminopropyl)-17-(1H-indol-3-ylmethyl)-25-methoxy-16-methyl-22-[4-(1H-tetrazol-5-yl)phenyl]-2-thia-4,10,13,16,19-pentazatricyclo[19.4.0.03,8]pentacosa-1(25), 3(8),4,6,21,23-hexaene-12,15,18-trione]	7.40
CC(=O)NS(=O)(=O)c1ccc(-c2ccc(Cl)c3c2CNC(=O)[C@H](Cc2c[nH]c4ccccc24)N(C)C(=O)[C@H](CCCCN)NC(=O)[C@H](CCCO)NCc2cccnc2S3)cc1 [Example 16.00, N-[4-[(11S,14S,7S)-14-(4-aminobutyl)-25-chloro-11-(3-hydroxypropyl)-17-(1H-indol-3-ylmethyl)-16-methyl-12,15,18-trioxo-2-thia-4,10,13,16,19-pentazatricyclo[19.4.0.03,8]pentacosa-1(21),3,5,7,22,24-hexaen-22-yl]phenyl]sulfonylacetamide]	6.51
CN1C(=O)[C@H](CCCCN)NC(=O)[C@H](CCCO)NCc2cccnc2Sc2c(Cl)ccc(-c3cnc(O)nc3)c2CNC(=O)[C@@H]1Cc1c[nH]c2ccccc12 [Example 16.01, (11S,14S,17S)-14-(4-Aminobutyl)-25-chloro-11-(3-hydroxypropyl)-22-(2-hydroxypyrimidin-5-yl)-17-(1H-indol-3-ylmethyl)-16-methyl-2-thia-4,10,13,16,19-pentazatricyclo[19.4.0.03,8]pentacosa-1(21),3,5,7,22,24-hexaene-12,15,18-trione]	5.74

More lines, now with the values ahead:

pIC50	SMILES
7.70	CN1C(=O)[C@H](CCCN)NC(=O)[C@H](CCCN)NCc2cccnc2Sc2c(Cl)ccc(-c3ccc(-c4nnn[nH]4)cc3)c2CNC(=O)[C@@H]1Cc1c[nH]c2ccccc12 [Example 8.01, (11S,14S,17S)-11,14-bis(3-aminopropyl)-25-chloro-17-(1H-indol-3-ylmethyl)-16-methyl-22-[4-(1H-tetrazol-5-yl)phenyl]-2-thia-4,10,13,16,19-pentazatricyclo[19.4.0.03,8]pentacosa-1(21),3,5,7,22,24-hexaene-12,15,18-trione]
7.70	CN1C(=O)[C@H](CCCN)NC(=O)[C@H](CCCN)NCc2cccnc2Sc2c(F)ccc(-c3ccc(S(=O)(=O)O)cc3)c2CNC(=O)[C@@H]1Cc1c[nH]c2ccccc12 [Example 9.00, 4-[(11S,14S,17S)-11,14-Bis(3-aminopropyl)-25-fluoro-17-(1H-indol-3-ylmethyl)-16-methyl-12,15,18-trioxo-2-thia-4,10,13,16,19-pentazatricyclo[19.4.0.03,8]pentacosa-1(25), 3(8),4,6,21,23-hexaen-22-yl]benzenesulfonic acid]
7.70	CN1C(=O)[C@H](CCCN)NC(=O)[C@H](CCCN)NCc2cccnc2Sc2c(F)ccc(-c3ccc(-c4nnn[nH]4)cc3)c2CNC(=O)[C@@H]1Cc1c[nH]c2ccccc12 [Example 9.01, (11S,14S,17S)-11,14-Bis(3-aminopropyl)-25-fluoro-17-(1H-indol-3-ylmethyl)-16-methyl-22-[4-(1H-tetrazol-5-yl)phenyl]-2-thia-4,10,13,16,19-pentazatricyclo[19.4.0.03,8]pentacosa-1(25), 3(8),4,6,21,23-hexaene-12,15,18-trione]
7.70	Cc1ccc(-c2ccc(S(=O)(=O)O)cc2)c2c1Sc1ncccc1CN[C@@H](CCCN)C(=O)N[C@@H](CCCCN)C(=O)N(C)[C@@H](Cc1c[nH]c3ccccc13)C(=O)NC2 [Example 11.00, 4-[(11S,14S,17S)-14-(4-Aminobutyl)-11-(3-aminopropyl)-17-(1H-indol-3-ylmethyl)-16,25-dimethyl-12,15,18-trioxo-2-thia-4,10,13,16,19-pentazatricyclo[19.4.0.03,8]pentacosa-1(25), 3(8),4,6,21,23-hexaen-22-yl]benzenesulfonic acid]
7.70	Cc1ccc(-c2ccc(-c3nnn[nH]3)cc2)c2c1Sc1ncccc1CN[C@@H](CCCN)C(=O)N[C@@H](CCCCN)C(=O)N(C)[C@@H](Cc1c[nH]c3ccccc13)C(=O)NC2 [Example 11.01, (11S,14S,17S)-14-(4-Aminobutyl)-11-(3-aminopropyl)-17-(1H-indol-3-ylmethyl)-16,25-dimethyl-22-[4-(1H-tetrazol-5-yl)phenyl]-2-thia-4,10,13,16,19-pentazatricyclo[19.4.0.03,8]pentacosa-1(25), 3(8),4,6,21,23-hexaene-12,15,18-trione]
7.70	CN1C(=O)[C@H](CCCCN)NC(=O)[C@H](CCN)NCc2cccnc2Sc2c(Cl)ccc(-c3ccc(S(=O)(=O)O)cc3)c2CNC(=O)[C@@H]1Cc1c[nH]c2ccccc12 [Example 12.00, 4-[(11S,14S,17S)-14-(4-Aminobutyl)-11-(2-aminoethyl)-25-chloro-17-(1H-indol-3-ylmethyl)-16-methyl-12,15,18-trioxo-2-thia-4,10,13,16,19-pentazatricyclo[19.4.0.03,8]pentacosa-1(25), 3(8),4,6,21,23-hexaen-22-yl]benzenesulfonic acid]
